Here are results for 2 substances from paper PMC9403610, “Efficient screening of pancreatic lipase inhibitors from cod meat hydrolysate through ligand fishing strategy” (Frontiers in Nutrition, 2022).

Assay [1] addresses T1, Porcine pancreatic lipase (PL) (Sus scrofa, UniProt P00591).
T1 construct: purchased Sigma Chemical Co. (St. Louis, MO, USA)
T1 sequence (P00591 1-450): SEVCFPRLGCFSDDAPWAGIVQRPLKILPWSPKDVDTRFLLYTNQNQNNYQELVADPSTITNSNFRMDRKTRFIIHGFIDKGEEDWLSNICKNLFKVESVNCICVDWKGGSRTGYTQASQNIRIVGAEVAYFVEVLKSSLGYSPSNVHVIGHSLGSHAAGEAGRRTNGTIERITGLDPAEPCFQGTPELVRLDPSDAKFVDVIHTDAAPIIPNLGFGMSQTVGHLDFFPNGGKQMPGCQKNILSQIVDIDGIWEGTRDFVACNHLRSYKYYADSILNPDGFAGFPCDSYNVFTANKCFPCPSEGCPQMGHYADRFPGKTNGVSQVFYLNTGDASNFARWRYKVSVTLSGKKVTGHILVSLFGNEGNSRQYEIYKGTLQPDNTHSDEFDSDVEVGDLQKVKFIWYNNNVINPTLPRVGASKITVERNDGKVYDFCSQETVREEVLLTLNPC
The assay can be described thus: Pancreatic lipase inhibition assay (pNPB substrate, absorbance 405 nm). In kind it is biochemical. The note with it: for IC50: pNPB substrate, Tris-HCl pH 7.5, 37°C. As to the method: Grind small pieces of cod meat into surimi, add alkaline protease, and hydrolyze for 2 h. The enzyme was then inactivated by high temperature and centrifuged. Finally, the supernatant was spray dried to obtain cod peptide (CP). According to the method of Hou et al. ([28]), the PL inhibition test was carried out on the protein hydrolysates, its gel chromatography fraction, and the pure peptides. The sample and PL were dissolved in Tris-HCl buffer (pH = 7.5), and pNPB was dissolved in acetonitrile, and diluted with tris-HCl buffer. Add 100 μL of the sample, 200 μL of Tris-HCl buffer, 150 μL of PL (5 mg/mL) to a 1.5 mL EP tube, incubate at 37°C for 10 min, and then add 150 μL of […] pNPB, shake and mix, and incubate at 37°C for 10 min. After the reaction was completed, the absorbance value at 405 nm was measured with a multifunctional microplate reader, and the PL inhibitory activity was calculated according to the following equation: Inhibition rate (%) = 1- (absorbance in the presence of inhibitor/[…] in negative control) × 100%.

For assay [2], the target named is T1, Porcine pancreatic lipase (PL). The experiment in a line: Assay of PLIs kinetics (reversibility, Lineweaver-Burk plots). The note with it: from slope of Lineweaver-Burk plot vs. peptide concentration; read-out: Ki (competitive inhibition constant). In kind it is biochemical. The method, then:
According to the method reported in the previous literature, with a slight modification, the type of inhibition of PL by active peptides was determined ([29], [30]). The peptide (0.8 mg/mL, final concentration) was reacted with different concentrations (0, 5, 10, 15, 20 mg/mL) of PL for 10 min, then 10 mM pNPB was added for 10 min. the absorbance of the reaction system at a wavelength of 405 nm was measured to determine the reversibility of the reaction. Next, the optimal PL concentration (5 mg/mL) and peptide (0, 0.8 mg/mL, final concentration) were fixed, and pNPB with different concentrations (1, 2, 3, 4, and 5 mM) was added to react for 10 min, a value was measured every 30 s, and the wavelength was 405 nm. The Lineweaver-Burk double reciprocal curve was used to determine the maximum velocity (Vmax) and Michaelis–Menten constant (Km). The slope and y-intercept of the Lineweaver-Burk plot vs. peptide concentration give a straight line with the intercepts on the horizontal axis as Ki (competitive inhibition constant) and K'i values (uncompetitive inhibition constant), respectively.

Where no end group is shown, it is not given here.

On to GSPPPSG [GSPPPSG], for which half-maximal inhibition in assay [1] (IC50) was put at 1000 µM. For the same substance, the inhibitory constant (Ki) in assay [2] was 4190 µM.
KLEGDLK [KLEGDLK] had an IC50 in assay [1] of 1350 µM. Moreover, the remaining activity at 6000 µg/mL in assay [1] (peptide concentration 6 mg/mL, read-out: residual activity on PL) is around 10%. For the same substance, the Ki in assay [2] was 1400 µM.
